{
  "source": "paper PMC5354587",
  "about": "“Ergosterone-coupled Triazol molecules trigger mitochondrial dysfunction, oxidative stress, and acidocalcisomal Ca^2+ release in Leishmania mexicana promastigotes” (Microbial Cell, 2015)",
  "format_in_all_cases": "cell-based",
  "key": {"[1]": {"system": "Leishmania mexicana promastigotes", "experiment": "Annexin V-AlexaFluor488/propidium iodide double staining, flow cytometry", "conditions": "Erg-GTr 1.4 μM or Erg-GTr2 2.3 μM", "procedure": "The effect of Erg-GTr and Erg-GTr2 was further analyzed to determine the cell death mechanism. Asymmetry of the plasma membrane is loosed when cell death processes are activated. The Annexin V-AlexaFluor488/propidium iodide double staining was used to detect phosphatidylserine (PS) in the outer leaflet of the plasma membrane using flow cytometry after parasite treatment. Cells were incubated for 24 and 48 hours with Erg-GTr (1.4 μM) or Erg-GTr2 (2.3 μM). […] At this time, the integrity of the plasma membrane was still intact, as evidenced by a low PI staining (5% or lower). After 48 hours, the percentage of Annexin V positive cells increased to reach more than 60% (Erg-GTr) or was maintained at around 40% in the case of Erg-GTr2 (Figure 2B). […] This phenomenon has been reported as a criterium of the late stage of cell death processes.\nThe annexin V-AlexaFluor 488 (Invitrogen) was used following the manufacture recommendations. Briefly, 1 x 10^6 parasites were washed with PBS and incubated with annexin V and propidium iodide (0.05 mg x mL^-1) in 100 μL binding buffer for 15 minutes. Final volume was adjusted at 500 μL and samples were immediately analyzed in a Beckman Coulter Gallios Cytometer."}, "[2]": {"system": "Leishmania mexicana promastigotes", "experiment": "Mitochondrial membrane potential, Mitotracker Red CMXROS, flow cytometry", "conditions": "treatment up to 48 hours, flow cytometry", "procedure": "In order to determine the energetic state of the mitochondrion after parasites treatment, the compound Mitotraker Red CMXROS was used. As described in the Materials and Methods section, parasites were treated for 6, 16, 24, and 48 hours with each molecule at its IC50, then incubated with Mitotraker Red CMXROS (50 nM) for 30 minutes under culture conditions, and finally analyzed by flow cytometry. […] Additionally, to rule out if Erg itself (the non-azole fraction of the conjugates) could be responsible for this hyperpolarization, parasites were treated with this compound and ΔΨmit was monitored for up to 48 hours by flow cytometry.\nMitotracker CMX Red(Invitrogen) was used to determine the mitochondrial membrane potential (Ψmit) of treated parasites. After 6, 16, 24, and 48 hours treatment, cells were incubated in culture medium with 50 nM Mitotracker CMX Red for 30 minutes at 26°C in the dark. Thereafter, parasites were washed twice with PBS, resuspended in 1 mL buffer, and analyzed using a cytometer (Beckman Coulter). Parasites incubated with valinomycin (500 nM for 30 minutes) were used as positive control. To evaluate the effect of ergosterone coupled molecules on the mitochondrial membrane potential immediately after molecule addition we used the fluorophore rhodamine-123, a mitochondrion-specific cationic dye, which distributes across the inner mitochondrial membranes strictly according to their membrane potential, as described before. Briefly, 1 x 10^7 parasites were washed twice with rhodamine 123 loading buffer (20 mM Tris-HCl, 130 mM KCl, 1 mM MgCl2, and 2 mM KH2PO4) and incubated with 20 μM rhodamine 123 for 45 minutes at 29°C under agitation. Samples were washed twice, resuspended in 500 μL of the same buffer, and transferred to a quartz cuvette. Fluorescence (ex 488 nm and em 530 nm) was registered in a Hitachi F-7000 Spectrofluorimeter. FCCP was used as control for mitochondrial membrane depolarization."}, "[3]": {"system": "Leishmania mexicana promastigotes", "experiment": "Transmission electron microscopy of treated parasites", "conditions": "48 hours, TEM", "procedure": "To analyze if changes observed after parasite treatment with Erg-GTr or Erg-GTr2 can be associated with morphological alterations, cells were prepared for transmission electron microscopy as described in materials and methods section.\nFigure 5 FIGURE 5: Transmission electron microscopy (TEM) of Epon-embedded cells. Parasites were treated with 1.4 μM Erg-GTr, 2.3 μM Erg-GTr2 or DMSO (control cells), harvested after 48 hours and prepared for TEM. (A) The most obvious alterations in Erg-GTr-treated cells are as follows: increase of vacuolar structures containing cytoplasmic material (c, d, f, h), myelin-like structures (d, h), increase of lysosomes (d, e, g), and flagellar pocket containing some material (g). Note the usual appearance of mitochondria, nucleus and cytoplasmic content in control cells (a, b). Abbreviations used: lysosome (L); nucleus (N); flagellar pocket (FP); mitochondrion (M). Arrows and asterisk indicate autophagosomes and myelin-like structures, respectively. (B) Mitochondrion zoom in to show cristae. […] Bars represent 0.5 μ each.\nFor TEM, 10^8 parasites were fixed in 2% (vol/vol) glutaraldehyde in 0.2 M sodium cacodylate buffer containing 0.12 M sucrose for 1 h at 4°C. Thereafter samples were washed four times (10 min each) and stored overnight in sodium cacodylate buffer. Before dehydration in ethanol, cells were postfixed in osmium tetroxide (1.5%, wt/vol) and stained in 0.5% uranyl acetate. Samples were cleared in propylene oxide and embedded in Agar 100 as described by. Sections were stained in 5% (wt/vol) uranyl acetate and 0.4% (wt/vol) lead citrate."}},
  "data": [
    {"smiles": "CC(C)C(C)C=CC(C)C1CCC2C3=CC(=NNC(=O)n4cnnc4)C4(O)CC(=O)CCC4(C)C3CCC21C", "note": "(centres unmarked) [Erg-GTr, [1,2,4]triazole-4-carboxylic acid [5-hydroxy-10,13-dimethyl-3-oxo-17-(1,4,5-trimethyl-hex-2-enyl)-1,2,3,4,5,9,10,11,12,13,14,15,16,17-tetradecahydro-cyclopenta[a]phenanthren-6-ylidene]-hydrazide]", "values": [
      {"measurement": "PI staining", "setting": "[1]; 24 hours", "value": "≤ 5", "unit": "%"},
      {"measurement": "PS exposure, percentage of the cell population", "setting": "[1]; 24 hours", "value": 40.2, "unit": "%"},
      {"measurement": "PI positive cells", "setting": "[1]; 48 hours", "value": 31, "unit": "%"},
      {"measurement": "percentage of Annexin V positive cells", "setting": "[1]; 48 hours", "value": "more than 60%"},
      {"measurement": "effect on inner mitochondrial membrane potential (ΔΨmit)", "setting": "[2]", "value": "hyperpolarize"},
      {"measurement": "autophagy (ultrastructural changes)", "setting": "[3]", "value": "Induction of autophagy"},
      {"measurement": "treated parasites showing increase in cristae number and size", "setting": "[3]", "value": "More than 50%"},
      {"measurement": "number and size of mitochondrion cristae", "setting": "[3]; compared with control", "value": "higher"}
    ]}
  ]
}
